Assay results taken from patent US11547697B2, “Heterocyclic compounds and uses thereof” (MILLENNIUM PHARMACEUTICALS, INC., priority 2009, dated 2023).
Where two headings read alike, the source gives them in different places.

Key:
[1] = biological target: p110β/p85α (Homo sapiens (Human), UniProt P42338); test: PI 3-Kinase (human) HTRF assay, p110β/p85α; assay type: biochemical
[2] = biological target: p110δ/p85α (Homo sapiens (Human), UniProt O00329); test: PI 3-Kinase (human) HTRF assay, p110δ/p85α; assay type: biochemical
[3] = biological target: p110γ (Homo sapiens (Human), UniProt P48736); test: PI 3-Kinase (human) HTRF assay, p110γ; assay type: biochemical
[4] = biological target: recombinant mTOR (Homo sapiens (Human), UniProt P42345); test: mTOR inhibition assay (radiometric or LanthaScreen TR-FRET); assay type: biochemical
Procedure: The compounds described herein can be tested against recombinant mTOR (Invitrogen) in an assay containing 50 mM HEPES, pH 7.5, 1 mM EGTA, 10 mM MgCl2, 2.5 mM, 0.01% Tween, 10 pM ATP (2.5 μCi of μ-32P-ATP), and 3 μg/mL BSA. R^at recombinant PHAS-1/4EBP1 (Calbiochem; 2 mg/mL) is used as a substrate. Reactions are terminated by spotting onto nitrocellulose, which is washed with 1M NaCl/1% phosphoric acid (approximately 6 times, 5-10 minutes each). Sheets are dried and the transferred radioactivity quantitated by phosphorimaging.
For instance, one can use Invitrogen's LanthaScreen™ Kinase assay to test the inhibitors of mTOR disclosed herein. This assay is a time resolved FRET platform that measures the phosphorylation of GFP labeled 4EBP1 by mTOR kinase. The kinase reaction is performed in a white 384 well microtitre plate. The total reaction volume is 20 ul per well and the reaction buffer composition is 50 mM HEPES pH7.5, 0.01% Polysorbate 20, 1 mM EGTA, 10 mM MnCl2, and 2 mM DTT. In the first step, each well receives 2 ul of test compound in 20% dimethylsulphoxide resulting in a 2% DMSO final concentration. Next, 8 ul of mTOR diluted in reaction buffer is added per well for a 60 ng/ml final concentration. To start the reaction, 10 ul of an ATP/GFP-4EBP1 mixture (diluted in reaction buffer) is added per well for a final concentration of 10 μM ATP and 0.5 μM GFP-4EBP1. The plate is sealed and incubated for 1 hour at room temperature. […] The plate is sealed, incubated for 1 hour at room temperature, and then read on a plate reader set up for LanthaScreen™ TR-FRET. Data is analyzed and IC50s are generated using GraphPad Prism 5.

[5] = biological target: p110α/p85α (Homo sapiens (Human), UniProt P42336); test: PI 3-Kinase (human) HTRF assay, p110α/p85α; assay type: biochemical
[6] = system: tumor cells with a PI3Kα mutation (e.g., MDA-MB-361 and T47D); test: Proliferation of tumor cells with PI3Kα mutation; assay type: cell-based; conditions: Homo sapiens, T47D cells
[7] = in vitro, read-out: PI3K β IC50
[8] = in vitro, read-out: PI3K γ IC50
[9] = in vitro, read-out: PI3K α IC50
[10] = read-out: T47D proliferation IC50
[11] = in vitro, read-out: PI3K δ IC50

Chain of recombinant mTOR (P42345 1360-2549): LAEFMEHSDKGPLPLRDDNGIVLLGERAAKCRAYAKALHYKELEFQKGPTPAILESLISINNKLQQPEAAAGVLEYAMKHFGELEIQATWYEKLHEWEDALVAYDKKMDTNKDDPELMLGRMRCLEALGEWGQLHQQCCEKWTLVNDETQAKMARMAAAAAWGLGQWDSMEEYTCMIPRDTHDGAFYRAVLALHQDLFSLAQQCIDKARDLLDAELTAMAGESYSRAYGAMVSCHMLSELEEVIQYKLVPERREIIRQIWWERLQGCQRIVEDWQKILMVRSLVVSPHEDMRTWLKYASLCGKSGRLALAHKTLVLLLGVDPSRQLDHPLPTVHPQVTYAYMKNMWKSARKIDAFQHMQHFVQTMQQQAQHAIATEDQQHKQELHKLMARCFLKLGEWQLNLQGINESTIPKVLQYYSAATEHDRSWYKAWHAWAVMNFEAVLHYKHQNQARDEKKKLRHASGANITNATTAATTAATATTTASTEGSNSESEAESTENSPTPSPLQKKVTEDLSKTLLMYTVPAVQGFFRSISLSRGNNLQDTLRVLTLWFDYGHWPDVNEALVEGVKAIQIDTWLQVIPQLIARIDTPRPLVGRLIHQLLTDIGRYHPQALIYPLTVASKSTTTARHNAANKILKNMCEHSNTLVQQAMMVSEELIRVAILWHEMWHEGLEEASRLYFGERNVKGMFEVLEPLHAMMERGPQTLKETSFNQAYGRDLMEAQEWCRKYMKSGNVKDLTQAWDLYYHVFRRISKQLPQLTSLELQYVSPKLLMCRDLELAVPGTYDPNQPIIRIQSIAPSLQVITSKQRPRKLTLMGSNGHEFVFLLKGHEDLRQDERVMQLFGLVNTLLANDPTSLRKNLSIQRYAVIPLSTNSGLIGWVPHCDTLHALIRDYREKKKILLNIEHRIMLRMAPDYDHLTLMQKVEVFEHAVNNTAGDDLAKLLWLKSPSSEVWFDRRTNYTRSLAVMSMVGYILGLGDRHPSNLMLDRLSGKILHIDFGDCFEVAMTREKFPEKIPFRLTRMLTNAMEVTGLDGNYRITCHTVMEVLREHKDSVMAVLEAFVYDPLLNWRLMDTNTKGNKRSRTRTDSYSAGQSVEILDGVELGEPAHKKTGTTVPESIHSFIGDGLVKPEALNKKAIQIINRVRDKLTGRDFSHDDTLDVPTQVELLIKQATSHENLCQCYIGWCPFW
Chain of p110α/p85α (P42336 whole entry): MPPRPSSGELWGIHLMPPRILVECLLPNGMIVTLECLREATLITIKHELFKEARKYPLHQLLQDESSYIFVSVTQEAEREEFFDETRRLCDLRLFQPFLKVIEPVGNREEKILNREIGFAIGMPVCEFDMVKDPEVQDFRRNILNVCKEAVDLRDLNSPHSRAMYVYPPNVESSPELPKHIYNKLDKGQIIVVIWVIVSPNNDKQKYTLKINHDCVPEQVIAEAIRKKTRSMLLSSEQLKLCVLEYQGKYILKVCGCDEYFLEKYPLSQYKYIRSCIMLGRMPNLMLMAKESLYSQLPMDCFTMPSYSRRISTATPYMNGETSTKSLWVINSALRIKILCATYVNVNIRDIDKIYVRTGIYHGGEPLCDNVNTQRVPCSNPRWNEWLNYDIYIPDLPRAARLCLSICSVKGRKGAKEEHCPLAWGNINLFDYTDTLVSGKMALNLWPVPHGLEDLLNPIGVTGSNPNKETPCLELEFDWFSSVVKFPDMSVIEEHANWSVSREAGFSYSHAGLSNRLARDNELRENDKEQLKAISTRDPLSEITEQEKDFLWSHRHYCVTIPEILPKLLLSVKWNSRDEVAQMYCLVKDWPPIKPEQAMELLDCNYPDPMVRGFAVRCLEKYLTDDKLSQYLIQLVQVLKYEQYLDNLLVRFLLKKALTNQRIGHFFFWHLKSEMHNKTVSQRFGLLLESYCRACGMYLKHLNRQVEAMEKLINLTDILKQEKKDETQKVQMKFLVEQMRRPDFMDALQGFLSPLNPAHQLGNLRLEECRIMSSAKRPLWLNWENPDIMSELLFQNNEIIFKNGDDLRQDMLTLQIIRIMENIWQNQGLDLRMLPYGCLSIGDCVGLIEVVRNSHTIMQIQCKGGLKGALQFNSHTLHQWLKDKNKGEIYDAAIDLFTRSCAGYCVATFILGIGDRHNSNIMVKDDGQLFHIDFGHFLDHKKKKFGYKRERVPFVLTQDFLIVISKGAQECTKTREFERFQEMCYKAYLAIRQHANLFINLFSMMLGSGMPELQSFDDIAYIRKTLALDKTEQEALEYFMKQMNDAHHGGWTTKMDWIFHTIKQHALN
Chain of p110α/p85α (P27986 whole entry partner): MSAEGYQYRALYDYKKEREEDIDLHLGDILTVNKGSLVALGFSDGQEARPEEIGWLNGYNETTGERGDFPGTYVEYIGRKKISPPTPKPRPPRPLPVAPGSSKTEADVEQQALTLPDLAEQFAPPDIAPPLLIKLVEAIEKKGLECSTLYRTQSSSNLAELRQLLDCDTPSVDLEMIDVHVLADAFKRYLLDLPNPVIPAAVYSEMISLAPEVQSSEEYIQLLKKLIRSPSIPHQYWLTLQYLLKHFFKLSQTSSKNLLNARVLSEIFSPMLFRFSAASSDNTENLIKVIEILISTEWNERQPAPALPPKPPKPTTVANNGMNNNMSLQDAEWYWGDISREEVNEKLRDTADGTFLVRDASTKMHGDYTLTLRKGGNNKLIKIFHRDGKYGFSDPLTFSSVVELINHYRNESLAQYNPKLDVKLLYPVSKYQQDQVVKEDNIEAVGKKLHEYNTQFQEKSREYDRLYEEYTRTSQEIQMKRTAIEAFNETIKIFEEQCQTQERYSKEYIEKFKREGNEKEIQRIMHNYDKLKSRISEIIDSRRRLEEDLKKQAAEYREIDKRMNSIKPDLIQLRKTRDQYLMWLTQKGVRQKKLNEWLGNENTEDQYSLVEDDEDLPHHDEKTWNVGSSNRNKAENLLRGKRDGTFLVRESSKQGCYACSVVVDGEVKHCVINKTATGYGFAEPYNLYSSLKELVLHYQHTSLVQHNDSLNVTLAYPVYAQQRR
Chain of p110γ (P48736 whole entry): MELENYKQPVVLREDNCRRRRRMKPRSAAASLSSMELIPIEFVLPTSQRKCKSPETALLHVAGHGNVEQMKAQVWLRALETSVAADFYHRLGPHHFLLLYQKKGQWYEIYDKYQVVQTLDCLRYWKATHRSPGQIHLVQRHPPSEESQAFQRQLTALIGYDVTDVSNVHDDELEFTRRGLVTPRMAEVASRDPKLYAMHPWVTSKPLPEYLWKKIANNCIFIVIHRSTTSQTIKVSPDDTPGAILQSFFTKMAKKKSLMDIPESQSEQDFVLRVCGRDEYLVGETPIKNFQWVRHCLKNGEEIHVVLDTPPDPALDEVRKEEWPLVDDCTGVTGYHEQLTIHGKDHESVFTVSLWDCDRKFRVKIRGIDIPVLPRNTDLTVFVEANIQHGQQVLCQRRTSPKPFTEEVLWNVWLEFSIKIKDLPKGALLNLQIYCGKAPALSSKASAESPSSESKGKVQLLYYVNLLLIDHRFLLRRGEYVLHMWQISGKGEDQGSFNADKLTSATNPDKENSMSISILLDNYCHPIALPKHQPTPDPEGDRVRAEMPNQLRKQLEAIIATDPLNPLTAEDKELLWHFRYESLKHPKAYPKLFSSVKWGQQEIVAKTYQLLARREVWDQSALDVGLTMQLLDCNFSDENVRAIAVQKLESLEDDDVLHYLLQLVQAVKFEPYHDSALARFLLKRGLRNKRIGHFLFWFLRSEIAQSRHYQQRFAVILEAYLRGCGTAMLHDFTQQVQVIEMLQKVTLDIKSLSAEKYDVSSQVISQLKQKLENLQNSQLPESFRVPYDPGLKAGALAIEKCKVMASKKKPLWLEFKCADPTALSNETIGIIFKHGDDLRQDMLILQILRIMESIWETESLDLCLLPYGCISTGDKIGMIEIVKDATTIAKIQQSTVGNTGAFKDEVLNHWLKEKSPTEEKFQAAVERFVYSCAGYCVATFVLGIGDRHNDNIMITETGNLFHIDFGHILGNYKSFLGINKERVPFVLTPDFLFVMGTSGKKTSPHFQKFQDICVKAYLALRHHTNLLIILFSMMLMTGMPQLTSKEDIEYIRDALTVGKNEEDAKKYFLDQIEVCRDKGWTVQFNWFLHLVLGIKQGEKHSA

SMILES	IC50 [1, 7]	IC50 [3, 8]	IC50 ([4]; in vitro, read-out: MTORC IC50)	IC50 [5, 9]	IC50 ([3]; read-out: PI3K γ IC50)	IC50 ([4]; read-out: MTORC IC50)	IC50 ([5]; read-out: PI3K α IC50)	IC50 [2, 11]	other results
CS(=O)(=O)Nc1cc(-c2ccc3ncc(C(=O)N4CCOCC4)n3c2)cnc1Cl [compound 418]									IC50 ([1]; read-out: PI3K β In Vitro IC50): < 0.1 µM; IC50 ([2]; read-out: PI3K δ In Vitro IC50): < 0.1 µM; IC50 ([3]; read-out: PI3K γ In Vitro IC50): < 0.1 µM; IC50 ([4]; read-out: MTORC In Vitro IC50): < 0.1 µM; IC50 ([5]; read-out: PI3K α In Vitro IC50): < 0.1 µM
CC(C)Oc1nc(-c2ccc3oc(N)nc3c2)cnc1N [compound 237]	< 10 µM	< 10 µM	< 1 µM	< 10 µM					
Nc1nc2cc(-c3ccc4ncc(N5CC[C@H](O)C5)nc4c3)ccc2o1 [compound 262]	< 1 µM	< 1 µM	< 10 µM	< 0.1 µM					IC50 [6, 10]: < 10 µM
COc1ncc(-c2ccc3ncc(C(=O)N4CCOCC4)n3c2)cc1NS(=O)(=O)c1ccc(F)cc1F [compound 417]									IC50 ([1]; read-out: PI3K β In Vitro IC50): < 0.1 µM; IC50 ([2]; read-out: PI3K δ In Vitro IC50): < 0.1 µM; IC50 ([3]; read-out: PI3K γ In Vitro IC50): < 0.1 µM; IC50 ([4]; read-out: MTORC In Vitro IC50): < 1 µM; IC50 ([5]; read-out: PI3K α In Vitro IC50): < 0.1 µM
N#Cc1cnc2ccc(-c3ccc4oc(N)nc4c3)cc2c1-c1ccncc1 [compound 46]					< 0.1 µM	< 0.1 µM	< 0.1 µM		IC50 ([2]; read-out: PI3K δ IC50): < 0.1 µM
O=C(c1cnc2ccc(-c3cnc(Cl)c(NS(=O)(=O)c4ccc(F)cc4F)c3)cn12)N1CCOCC1 [compound 419]									IC50 ([1]; read-out: PI3K β In Vitro IC50): < 0.1 µM; IC50 ([2]; read-out: PI3K δ In Vitro IC50): < 0.1 µM; IC50 ([3]; read-out: PI3K γ In Vitro IC50): < 0.1 µM; IC50 ([4]; read-out: MTORC In Vitro IC50): < 1 µM; IC50 ([5]; read-out: PI3K α In Vitro IC50): < 0.1 µM
Nc1nc2cc(-c3ccc4oc(N)nc4c3)ccc2o1 [compound 240]		< 0.1 µM	< 10 µM	< 1 µM				< 10 µM	
Nc1nc2cc(-c3ccc4ncc(N5CC(N6CCN(C7CC7)CC6)C5)nc4c3)ccc2o1 [compound 313]	< 10 µM	< 10 µM	< 10 µM	< 0.1 µM				< 10 µM	
Nc1nc2cc(-c3ccc4ncc(=O)[nH]c4c3)ccc2o1 [compound 72]					< 0.1 µM	< 1 µM	< 0.1 µM		IC50 ([1]; read-out: PI3K β IC50): < 1 µM
CN1CCN(C(=O)c2cnc3ccc(-c4ccc5oc(N)nc5c4)cn23)CC1 [compound 44]					< 10 µM	< 10 µM	< 0.1 µM		IC50 ([2]; read-out: PI3K δ IC50): < 10 µM
Cn1cc(-c2ccnc3ccc(-c4ccc5oc(N)nc5c4)cc23)cn1 [compound 26]					< 0.1 µM	< 1 µM	< 0.1 µM		IC50 ([2]; read-out: PI3K δ IC50): < 0.1 µM
Cc1nc2ccc(-c3ccc4oc(N)nc4c3)nn2c1-c1ccncc1 [compound 56]					< 0.1 µM	< 1 µM	< 0.1 µM		IC50 ([1]; read-out: PI3K β IC50): < 1 µM; IC50 ([6]; read-out: T47D proliferation): < 10 µM
Nc1nc2cc(-c3ccc4ncc(N5CCC(n6ccnc6)CC5)nc4c3)ccc2o1 [compound 345]	< 1 µM	< 1 µM	< 10 µM	< 0.1 µM				< 1 µM	
CC(C)N1CCC(n2cnc3ccc(-c4ccc5oc(N)nc5c4)cc3c2=O)CC1 [compound 74]					< 10 µM	< 10 µM	< 0.1 µM		IC50 ([1]; read-out: PI3K β IC50): < 10 µM; IC50 ([6]; read-out: T47D proliferation): < 10 µM
Nc1nc2cc(-c3ccc4nc(N)sc4c3)ccc2o1 [compound 232]	< 1 µM	< 0.1 µM	< 10 µM	< 1 µM				< 10 µM	
Nc1nc2cc(-c3ccc4nccn4c3)ccc2o1 [compound 40]					< 10 µM	< 10 µM	< 10 µM		
CN1CCN([C@@H]2CCN(c3cnc4ccc(-c5ccc6oc(N)nc6c5)cc4n3)C2)CC1 [compound 379]	< 1 µM		< 10 µM	< 0.1 µM				< 10 µM	
COC(=O)N1CCC(n2ncc3c(N4CCOCC4)nc(-c4ccc5oc(N)nc5c4)nc32)CC1 [compound 330]	< 10 µM		< 1 µM	< 1 µM					
CC(=O)Nc1ncc(-c2ccc3oc(N)nc3c2)s1 [compound 235]		< 10 µM	< 10 µM	< 10 µM				< 10 µM	
Nc1nc2cc(-c3ccc4ncc(N5CC(N6CCOCC6)C5)nc4c3)ccc2o1 [compound 273]		< 10 µM	< 1 µM	< 0.1 µM					IC50 [6, 10]: < 1 µM
Nc1nc2cc(-c3ccn4ncc(-c5ccncc5)c4n3)ccc2o1 [compound 62]					< 0.1 µM	< 0.1 µM	< 0.1 µM		IC50 ([1]; read-out: PI3K β IC50): < 0.1 µM; IC50 ([2]; read-out: PI3K δ IC50): < 0.1 µM
Nc1nc2cc(-c3ccc4ncc(N5CC(N6CC[C@@H](O)C6)C5)nc4c3)ccc2o1 [compound 315]	< 10 µM	< 10 µM	< 1 µM	< 0.1 µM				< 10 µM	
